# Reference: US9023831B2, “Methods and compositions of inhibiting complement and cellular activation with Dextran Sulfate” (Novelmed Therapeutics, Inc., priority 2007, dated 2015)
# “Also recorded” adds a separate entry of the source.
# Key:
# [1] = tested on: sC5b-9 in Normal Heparinized Whole Human Blood; assay: sC5b-9 ELISA after tubing loop model of cardiopulmonary bypass; conditions: for inhibition of sC5b-9 formation / complement activity in whole blood / inhibition of sC5b-9 formation: 2 hour tubing loop rotation
# Method: An aliquot of the plasma following the 2 hour tubing loop rotation in bypass was evaluated for sC5b-9 using ELISA kit from Quidel Corporation.
# Preparation of Tubing Loops: Tubing loops (PVC, cat # . . . VWR Scientific) were prepared by cutting a piece of polyvinyl tubing and connecting the ends of the tubing with a piece of silicone plug. Blood was drawn using 16 gauge needled from fasting healthy donors. The blood volume of 45 was drawn into a 50 ml polypropylene tube containing a final concentration of 5 units of heparin per ml of blood. The blood was diluted with 35 ml plasmalyte. The diluted blood (2 ml) was filled in each tubing loop. Duplicate tubing loops were prepared for each treatment. Blood samples were prepared as follows; no treatment, treated with various concentrations of Dextran Sulfate.
# (2) Tubing Loop Operation and Sampling: The concentration of Dextran Sulfate was chosen based upon in vitro assay and the concentration of plasma. Concentrations of Dextran Sulfate in range of 800 μg/ml, 400 μg/ml, 200 μg/ml, 100 μg/ml, and 40 μg/ml. Prior to the addition of the untreated and treated blood to the extracorporeal circuit, a blood sample was taken from the stock of diluted blood and is designated baseline control. At that time, various concentrations of Dextran Sulfate in blood will be filled into the tubing loop. Following a 2 hours rotation at 37°, tubing loop samples were transferred to 2 ml polypropylene tubes and plasma samples were prepared by immediate centrifugation at 2,000 g. […] A number of controls were put into place. From the donor we obtained serum, heparinized whole blood plasma, unrotated controls, rotated controls, and Dextran Sulfate treated samples.
# Plasma aliquots for measuring sC5b-9 in ELISA. Aliquots were appropriately diluted for the measurements of sC5b-9 complex in plasma.
# [2] = tested on: platelets (CD62P staining); assay: Platelet activation (CD62P flow cytometry) after tubing loop; type: cell-based, human
# Method: It was expected that platelet activation would also be inhibited. […] The inhibition of platelet activation was measured using flow cytometry following CD62P staining of activated platelets.
# It was expected that platelet activation will also be inhibited. […] The inhibition of platelet activation was measured using flow cytometry following CD62P staining of activated platelets.
# While platelets bear C3a receptors, it is not clear how platelets were being activated. In an effort to downregulate platelet activation, we performed an experiment in which Dextran Sulfate was utilized in combination with aspirin. […] These surprising results present Dextran Sulfate as a lead complement inhibitory drug that down regulates both complement and cellular activation in heparinized whole human blood. Shown in FIGS. 10d and 10e are results from this study.
# For CD62P labeling of platelets, 100 μl of diluted blood collected from the circuits were immediately incubated with 20 μl of PE-anti-CD62P antibody (Becton Dickinson) for 20 minutes at room temperature in a polypropylene tube, Then the mixture was treated with FACS Lysing Solution as described above. The microcentrifuge tubes were centrifuged at 12000. g for 5 minutes. The platelets were washed in PBS/BSA 01%, fixed in 1% paraformaldehyde and then analyzed as described above. For double labeling to concomitantly identify the platelet population, 5 μl of FITC-anti-CD61 antibody were added for incubation together with PE-anti-CD62P antibody.
# (§1) For flow cytometry measurement, the PMN (containing mainly neutrophils) and platelet populations were identified by live gating based on forward- versus side-scatter parameters and specific staining with FITC-anti-CD15 antibody and FITC-anti-CD61 antibody, respectively. The background staining was gated using isotype-matched labeled antibodies. The intensity of expression of CD11b and CD62P was represented by mean fluorescence intensity (MFI).
# [3] = tested on: immune cells infiltrating the synovial fluid; assay: Cellular infiltration into arthritic knee joints of AIA rabbits; conditions: 48-h after last treatment, vs vehicle-treated AIA rabbits
# Method: Methods. The numbers of immune cells infiltrating the synovial fluid of the right and left joints was determined by cell counting using a hemocytometer.
# Synovial samples were also collected from the right and left knees of the AIA rabbits in this experiment and assessed for immunocyte infiltration 48-h after the last Dextran Sulfate or vehicle treatment. […] Data are presented as mean number of cells±SEM for each rabbit (N of 5 per treatment group, Stats: repeated measure ANOVA with Bonferoni Post-hoc test, *p<0.05).
# Properdin Binding to C3b = Properdin Binding to C3b (Homo sapiens, UniProt P27918); assay: Inhibition of properdin binding to C3b (ELISA); conditions: C3b coated plates
# Properdin Binding to C3b, sequence (P27918 28-469): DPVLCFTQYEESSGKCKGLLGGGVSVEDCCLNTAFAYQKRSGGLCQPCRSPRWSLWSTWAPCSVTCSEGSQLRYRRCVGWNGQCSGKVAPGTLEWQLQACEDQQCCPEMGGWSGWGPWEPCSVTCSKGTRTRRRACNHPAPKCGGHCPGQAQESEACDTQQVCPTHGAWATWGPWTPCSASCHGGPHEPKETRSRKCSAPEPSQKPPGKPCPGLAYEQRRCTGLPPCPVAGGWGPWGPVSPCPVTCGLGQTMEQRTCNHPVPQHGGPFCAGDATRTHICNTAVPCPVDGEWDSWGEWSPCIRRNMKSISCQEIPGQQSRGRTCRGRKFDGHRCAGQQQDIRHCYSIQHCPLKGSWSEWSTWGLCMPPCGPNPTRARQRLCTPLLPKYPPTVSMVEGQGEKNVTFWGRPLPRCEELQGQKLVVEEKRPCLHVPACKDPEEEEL
# Method: Methods: Polystyrene microtiter plates were coated with C3b in phosphate buffered saline (PBS) overnight. After aspirating the C3b solution, wells were blocked bovine serum albumin Wells without C3b coating served as background controls. […] Wells were washed PBS and C3b-bound properdin was detected by the addition of a mouse anti-human properdin antibody (Quidel, P#2 monoclonal). After washing the plate with PBS, HRP-conjugated goat anti-mouse antibody (Sigma Chemicals A2304) was added and allowed to incubate for 1 h. The plate was again rinsed thoroughly with PBS, and TMB substrate was added to each well. The data was plotted using Microcal Origin Program.
# In a typical assay, polystyrene microtiter plates were coated with C3b (50 μg/50 μl/well, Advanced Research Technologies, San Diego, Calif.) in phosphate buffered saline (PBS) overnight at 4° C. After aspirating the C3b solution, wells were blocked with PBS containing 1% bovine serum albumin (BSA) (Sigma Chemical Company, St. Louis, Mo., Cat. No. A7888) for 2 hours at room temperature. Wells without C3b coating served as background controls. […] C3b-bound properdin was detected by the addition of mouse monoclonal anti-human properdin antibody (detection antibody) (Quidel, San Diego, Calif., anti-human properdin monoclonal antibody P#2, Cat. No. A235) at 1:2000 dilution in blocking solution, which was allowed to incubate for 1 hour at room temperature. […] After incubation for 10 minutes at 25° C., the reaction of TMB was quenched by the addition of 100 μl of phosphoric acid, and the plate was read at 450 nm in a microplate reader (e.g., SPECTRA MAX 190, Molecular Devices, Sunnyvale, Calif.). […]
# The ability of a Dextran Sulfate to inhibit C3b-P binding was evaluated by adding varying concentrations of Dextran Sulfate to a constant concentration of properdin (2 nM). The amount of properdin bound to C3b was detected with the antibody detection system described above.
# [4] = tested on: C5b-9 Formation in Normal Human Serum; assay: Alternative pathway-dependent C5b-9 (MAC) solid phase ELISA on LPS; type: biochemical; conditions: 8% NHS, LPS coated wells
# Method: Uncoated wells served as background controls.
# Microtiter wells were coated with LPS (2 μg/50 μl per well) in VBS overnight at 4° C. Uncoated wells served as background controls. After aspirating the LPS solution, wells were treated with blocking solution and incubated with various concentrations of normal human serum.
# [5] = tested on: neutrophils (CD11b expression); assay: Neutrophil activation (CD11b flow cytometry) after tubing loop; type: cell-based, human
# From the text: Same samples of blood following the tubing loop were also subjected to neutrophil specific flow cytometry. […] Similar data was obtained with multiple donors. In the Figure are shown Rotated Control (blood sample in tubing loop), Unrotated controls (samples taken out before tubing loop). Unrotated represents the background controls.
# The activation of neutrophils, monocyte and platelets were quantitated by measuring the levels of the cell-surface expression of CD11b and CD62P on neutrophils/monocytes and platelets, respectively. For CD11b labeling of neutrophils, 200 μl of whole blood collected from the circuits were immediately incubated with 20 μl of phycoerythrin (PE)-anti-CD11b antibody (Becton Dickinson, San Jose, Calif.) for 20 minutes at room temperature in a microcentrifuge tube. Then 2 ml of FACS Lysing Solution (Becton Dickinson) was added for 20 minutes at room temperature to lyse red blood cells and to fix leukocytes. The microcentrifuge tubes were centrifuged at 300 g for 5 minutes for leukocytes and 1200 g for platelets. The supernatant was aspirated and the cells resuspended in PBS for washing. The tubes were spun again, the supernatant aspirated, and the cells finally resuspended in 0.5 ml of 1% paraformaldehyde overnight prior to analysis using an BD-LSR flow cytometer (BD Biosciences). For double labeling to concomitantly identify the neutrophil population, 10 μl of fluorescein isothiocyanate (FITC)-anti-CD15 antibody (clone MMA, Becton Dickinson) were added for incubation together with PE-anti-CD11b antibody to stain neutrophils and anti-CD14 (FITC) along with PE-CD11b was used for monocytes.
# Neutrophils bear both C3a and C5a receptors. Thus, prevention of C3a/C5a production should have direct effect on CD11b expression. Monocytes have been known to bear the C3a receptors. C3a produced because of complement activation is known to activate monocytes.
# as §1
substance,measurement,setting,value
Dextran Sulfate [NM3014],inhibition of sC5b-9 formation / complement activity in whole blood,[1]; 40 μg/ml,no inhibition; also recorded: does not inhibit complement activity
same,inhibition of sC5b-9 formation / complement activity in whole blood,[1]; 100 μg/ml,complete inhibition; also recorded: inhibits complement activity; also recorded: inhibition of complement activity
same,inhibition of sC5b-9 formation,[1]; 400 μg/ml,complete inhibition
same,inhibition of sC5b-9 formation,[1]; 800 μg/ml,complete inhibition
same,inhibition of sC5b-9 production,[1]; all doses up to 100 μg/ml,completely inhibited
same,platelet activation,"[2]; 40 μg/ml, above control levels",activates platelet
same,platelet activation,"[2]; 100 μg/ml, above control levels",activates platelet
same,platelet activation,"[2]; treated samples compared to untreated controls, concentration not stated",increased CD62P staining
same,platelet activation,"[2]; treated samples compared to untreated controls, concentration not stated, listed as Dextran Sulfate",activates platelets
same,immunocyte infiltration into arthritic knee joints,[3],reduced
same,immunocyte infiltration into arthritic knee joints,[3]; listed as Dextran Sulfate,significant decrease
same,inhibition of properdin binding to C3b,Properdin Binding to C3b,dose-dependent and complete inhibition
same,inhibition of properdin binding to C3b,Properdin Binding to C3b; listed as Dextran Sulfate,dose-dependent inhibition
same,IC50 of inhibition of properdin binding to C3b,Properdin Binding to C3b; human serum containing nearly 2-5 nM properdin,~50 µg/mL
same,inhibition of C5b-9 (MAC) formation,[4],Inhibits C5b-9 Formation
same,inhibition of C5b-9 (MAC) formation,[4]; listed as Dextran Sulfate,completely prevented
same,inhibition of neutrophil activation,[5]; 40 μg/ml,no effect
same,inhibition of neutrophil activation,"[5]; 40 μg/ml, listed as Dextran Sulfate",No inhibition
same,inhibition of neutrophil activation,[5]; 800 to 100 μg/ml,inhibited; also recorded: prevents neutrophil activation
same,inhibition of neutrophil activation,"[5]; 800 to 100 μg/ml, listed as Dextran Sulfate",inhibits neutrophil activation
